Assay results taken from publication PMC10873021 (Biochemistry, 2023).

Columns and labels:
[1] = system: PglJ Cc 13826; conditions: 20 μM Und-PP-diNAcBac-GalNAc; 0.1 nM enzyme; 5 mM MgCl2; 0.1% Triton X-100; 50 mM HEPES pH 7.5; 100 mM NaCl
[2] = system: PglJ Cc 33237; conditions: 20 μM Und-PP-diNAcBac-GalNAc; 0.1 nM enzyme; 5 mM MgCl2; 0.1% Triton X-100; 50 mM HEPES pH 7.5; 100 mM NaCl
[3] = biological target: PglJ Cj 11168 (Campylobacter jejuni, UniProt Q0P9C7); experiment: UDP-Glo glycosyltransferase assay, UDP-sugar screen; format: biochemical; conditions: 10 nM enzyme; 25 μM UDP-sugar; 20 μM Und-PP-diNAcBac-GalNAc; 5 mM MgCl2; pH 7.5
[4] = system: PglJ Cc 33237; conditions: 25 μM UDP-sugar; 20 μM Und-PP-diNAcBac-GalNAc; 5 mM MgCl2; pH 7.5; varying enzyme
[5] = system: PglJ Cc 33237; conditions: 1 mM ligand; 10 mM HEPES pH 7.5; 150 mM NaCl; 5% glycerol; 2 mM DTT; 0.03% DDM
[6] = system: PglJ Cc 13826; conditions: 1 mM ligand; 10 mM HEPES pH 7.5; 150 mM NaCl; 5% glycerol; 2 mM DTT; 0.03% DDM

Row | Structure (SMILES) | dTm [5] | dTm [6] | also measured
1 | CC(=O)N[C@H]1[C@@H](OP(=O)(O)OP(=O)(O)OC[C@H]2O[C@@H](n3ccc(=O)[nH]c3=O)[C@H](O)[C@@H]2O)O[C@H](C(=O)O)[C@H](O)[C@@H]1O [UDP-GalNAcA] |  |  | Km [1]: 3.8 ± 1.9 µM; Km [2]: 7.4 ± 2.5 µM
2 | CC(=O)N[C@H]1[C@@H](OP(=O)(O)OP(=O)(O)OC[C@H]2O[C@@H](n3ccc(=O)[nH]c3=O)[C@H](O)[C@@H]2O)O[C@H](CO)[C@H](O)[C@@H]1O [UDP-GalNAc] |  |  | UDP-Glo glycosyltransferase assay, UDP-sugar screen [3]: At the same concentration, the PglJ from C. jejuni preferred UDP-GalNAc; UDP-Glo glycosyltransferase assay, UDP-sugar screen [4]: this variant now transfers GalNAc from UDP-GalNAc onto the growing Und-PP-glycan
3 | CC(=O)N[C@H]1[C@@H](OP(=O)(O)OP(=O)(O)OC[C@H]2O[C@@H](n3ccc(=O)[nH]c3=O)[C@H](O)[C@@H]2O)O[C@H](C(=O)O)[C@@H](O)[C@@H]1O [UDP-GlcNAcA] | (UDP-GalNAcA and UDP-GlcNAcA) stabilized the PglJ enzymes from both strains of C. concisus studied | (UDP-GalNAcA and UDP-GlcNAcA) stabilized the PglJ enzymes from both strains of C. concisus studied | 
4 | O=c1ccn([C@@H]2O[C@H](COP(=O)(O)OP(=O)(O)O)[C@@H](O)[C@H]2O)c(=O)[nH]1 [UDP] | Significant stabilization was observed with UDP, the nucleotide product of the glycosyltransferase reaction | Significant stabilization was observed with UDP, the nucleotide product of the glycosyltransferase reaction | 
